Reference: patent US10730883B2 (AbbVie Inc., priority 2015, dated 2020)
In brackets after ≈: the same amount, converted by molar mass.

Experiments:
[1] = Bioavailability of solid state forms; type: in vivo; conditions: relative to the corresponding crystalline forms
[2] = Stability of solid state forms to light and peroxide; type: physicochemical
Protocol: (§1) The Amorphous Freebase, however, is hygroscopic and can comprise as much as 12% by weight water at 25° C./90% relative humidity. Environmental controls potentially are required to ensure appropriate control of potency and water content during storage, dispensing, and handling of the Amorphous Freebase.
(§2) The Tartrate Hydrate, however, potentially will convert to an amorphous tartrate below 10% relative humidity, when heated, or when compressed or under shear.

[3] = Chemical stability of solid state forms in closed vials at controlled temperature and relative humidity; type: physicochemical
Protocol: as §1, §2

[4] = Hygroscopicity / moisture sorption isotherm of solid state forms; type: physicochemical
From the text: FIG. 6A is a moisture sorption isotherm corresponding to the Amorphous Freebase (via dehydration).
FIG. 6C is a moisture sorption isotherm corresponding to the Tartrate Hydrate.
FIG. 6D is a moisture sorption isotherm corresponding to the Freebase Anhydrate Form D.
In one embodiment, the Tartrate Hydrate has a moisture sorption isotherm profile showing a weight gain of about 1% to about 2% when relative humidity is increased from about 10% relative humidity to about 90% relative humidity at a temperature of 25° C.

[5] = Solid state accelerated stability study; type: physicochemical; conditions: for Growth of degradation products: open and closed glass vials
Protocol: Samples (approximately 1 mg to 2 mg) of the solid state form were weighed into glass vials and tested as described below.

[6] = Solubility of solid state forms; type: physicochemical; conditions: Amorphous Freebase: relative to the corresponding crystalline forms
[7] = Moisture sorption isotherm; type: physicochemical; conditions: 90% relative humidity at 25° C.
Protocol: Moisture vapor isotherm data were collected with a DVS Advantage (Surface Measurement Systems Ltd, Alperton, United Kingdom). The sample powder (5 mg to 20 mg) was loaded on a tared pan of the DVS Advantage. The moisture sorption isotherm data were collected from 30-0-90-0-30% relative humidity in 10% relative humidity intervals. For each step, the dm/dt criteria was 0.001% over 5 minutes, a minimum dm/dt time of 30 minutes, and a maximum dm/dt of 120 minutes. Data was collected isothermally at 25° C. with a nitrogen flow rate of 200 cm^3/minute. The post DVS sample was kept at approximately 30% relative humidity before PXRD analysis.

[8] = Equilibrium solubility; type: physicochemical
Protocol: After equilibration, the mixtures were inspected to assure that the amount of excess solid was sufficient to permit re-characterization. […] The pH of aqueous suspensions was determined after equilibration. The solid phase was separated from the liquid phase by centrifugation at 3300 rpm at equilibration temperatures (i.e., 25° C. or 37° C.). The supernatant was then filtered (13 mm Acrodisc® syringe filter with 0.45μ GHP membrane, Pall® Life Sciences, Ann Arbor, Mich.) to discard the initial 2 mL (to saturate filter) and capture the last 1 mL for analysis. The filtrate was diluted as needed for quantification of the material studied by HPLC method (as detailed elsewhere herein). The physical form of the recovered solid was characterized by powder X-ray diffraction to examine whether or not phase change had occurred

[9] = general statement on the solid state form

CC[C@@H]1CN(C(=O)NCC(F)(F)F)C[C@@H]1c1cnc2cnc3[nH]ccc3n12 [Amorphous Freebase, (3S,4R)-3-ethyl-4-(3H-imidazo[1,2-a]pyrrolo[2,3-e]pyrazin-8-yl)-N-(2,2,2-trifluoroethyl)pyrrolidine-1-carboxamide]
bioavailability [1]: increased bioavailability | stability to light and peroxide [2]: acceptable stability | degradation observed in closed vials ([3]; closed vials, 30° C./65% relative humidity and 40° C./75% relative humidity over 12 weeks, 50° C./75% relative humidity over 6 weeks): no degradation | chemical stability [3, 9]: acceptable chemical stability | water content (hygroscopicity) ([4]; 25° C./90% relative humidity): ≤ 12 % by weight | hygroscopicity [4, 9]: hygroscopic | Growth of degradation products ([5]; 40° C./75% relative humidity, up to 24 weeks): no growth of degradation products | Growth of degradation products ([5]; 50° C./75% relative humidity, up to six weeks): no growth of degradation products | chemical stability ([5]; solid state accelerated stability study): acceptable | Change in attributes evaluated (description, crystal form, assay, impurities and water content) ([5]; storage conditions of the accelerated stability study): No material change | Solubility [6]: greater solubility | Moisture sorption (reversibly sorbs up to) [7]: up to 13% | Solubility ([8]; FasSIF (pH 6.5 at 37° C.)): 1.14 mg/mL (≈ 3 mM) | Solubility ([8]; FedSIF (pH 5.0 at 37° C.)): 2.13 mg/mL (≈ 5.6 mM) | Solubility ([8]; pH 1 at 25° C.): >3.5 mg/mL | Solubility ([8]; pH 7.4 at 25° C.): 0.68 mg/mL (≈ 1.79 mM)
